From patent US20250144223A1, “PROTEIN DEGRADATION COMPOUND BASED ON NAMPT TARGET PROTEIN AND APPLICATION THEREOF” (GLUETACS THERAPEUTICS (SHANGHAI) CO., LTD., priority 2021, published 2025)

What follows are compounds tested on Jurkat (assay: CellTiter-Glo Luminescent Cell Viability Assay, half inhibitory concentration (IC50) on tumor cell proliferation). Details: Homo sapiens, Jurkat cells, 72 h treatment.
Format: cell-based
Protocol: The tumor cells used herein were cultured in a cell culture medium at 37° C. in an incubator with 5% CO2, where the cell culture medium was supplemented with 10% FBS, as well as penicillin at a final concentration of 100 U/mL and streptomycin at a final concentration of 100 μg/mL. Prior to experimentation, all cells used were identified as correct cells by STR cells, and were negative for mycoplasma through routine testing.
IC50 values of the compounds of the present disclosure (including the compounds in Table 1 and compounds of examples) were measured using the CellTiter-Glo® Luminescent Cell Viability Assay kit from Promega Corporation. Assay details are as follows: Cells were seeded in 100 μL RPMI1640 medium containing serum at a density of 20,000 cells/well. After 24 h, the inoculated cells were treated with the compounds of the present disclosure which were serially diluted. After the cells were treated with the compounds of the present disclosure for 72 h, the CellTiter-Glo® reagent was added to the culture medium for cell viability assessment according to the instructions provided with the kit. DMSO served as the negative control, and FK866 inhibitor was used as the positive control, both treated with the same protocol as the compounds of the present disclosure. The growth inhibition of the compounds of the present disclosure on cells was plotted by Prism Graphpad software, and the IC50 values of the compounds of the present disclosure were calculated therefrom.

IC50 [nM]	SMILES
63	O=C(/C=C/c1cccnc1)NCCCCC1CCN(C(=O)c2ccc(N3CCN(CCCCCCSc4cccc5c4C(=O)N(C4CCC(=O)NC4=O)C5=O)CC3)cc2)CC1 (stereo not shown) [SIAIS631072, (E)-N-(4-(1-(4-(4-(6-((2-(2,6-dioxopiperidin-3-yl)-1,3-dioxoisoindolin-4-yl)thio)hexyl)piperazin-1-yl)benzoyl)piperidin-4-yl)butyl)-3-(pyridin-3-yl)acrylamide]
62.5	O=C(/C=C/c1cccnc1)NCCCCC1CCN(C(=O)c2ccc(N3CCN(CCCCCCCCSc4cccc5c4C(=O)N(C4CCC(=O)NC4=O)C5=O)CC3)cc2)CC1 (stereo not shown) [SIAIS631073, (E)-N-(4-(1-(4-(4-(8-((2-(2,6-dioxopiperidin-3-yl)-1,3-dioxoisoindolin-4-yl)thio)octyl)piperazin-1-yl)benzoyl)piperidin-4-yl)butyl)-3-(pyridin-3-yl)acrylamide]
62.2	O=C(/C=C/c1cccnc1)NCCCCC1CCN(C(=O)c2ccc(N3CCN(CCCCCCCSc4cccc5c4C(=O)N(C4CCC(=O)NC4=O)C5=O)CC3)cc2)CC1 (stereo not shown) [SIAIS631078, (E)-N-(4-(1-(4-(4-(7-((2-(2,6-dioxopiperidin-3-yl)-1,3-dioxoisoindolin-4-yl)thio)heptyl)piperazin-1-yl)benzoyl)piperidin-4-yl)butyl)-3-(pyridin-3-yl)acrylamide]
7.32	O=C(/C=C/c1cccnc1)NCCCCC1CCN(C(=O)c2ccc(N3CCN(C(=O)CCOCCNc4cccc5c4C(=O)N(C4CCC(=O)NC4=O)C5=O)CC3)cc2)CC1 (stereo not shown) [SIAIS631079, (E)-N-(4-(1-(4-(4-(3-(2-((2-(2,6-dioxopiperidin-3-yl)-1,3-dioxoisoindolin-4-yl)amino)ethoxy)propanoyl)piperazin-1-yl)benzoyl)piperidin-4-yl)butyl)-3-(pyridin-3-yl)acrylamide]
79.7	O=C(/C=C/c1cccnc1)NCCCCC1CCN(C(=O)c2ccc(N3CCN(CCCCCC#Cc4cccc5c4C(=O)N(C4CCC(=O)NC4=O)C5=O)CC3)cc2)CC1 (stereo not shown) [SIAIS631108, (E)-N-(4-(1-(4-(4-(7-(2-(2,6-dioxopiperidin-3-yl)-1,3-dioxoisoindolin-4-yl)hept-6-yn-1-yl)piperazin-1-yl)benzoyl)piperidin-4-yl)butyl)-3-(pyridin-3-yl)acrylamide]
71.2	O=C(/C=C/c1cccnc1)NCCCCC1CCN(C(=O)c2ccc(N3CCN(C(=O)CCOCCOCCNc4cccc5c4C(=O)N(C4CCC(=O)NC4=O)C5=O)CC3)cc2)CC1 (stereo not shown) [SIAIS631109, (E)-N-(4-(1-(4-(4-(3-(2-(2-((2-(2,6-dioxopiperidin-3-yl)-1,3-dioxoisoindolin-4-yl)amino)ethoxy)ethoxy)propanoyl)piperazin-1-yl)benzoyl)piperidin-4-yl)butyl)-3-(pyridin-3-yl)acrylamide]
64.3	O=C(/C=C/c1cccnc1)NCCCCC1CCN(C(=O)c2ccc(N3CCN(C(=O)COCCSc4cccc5c4C(=O)N(C4CCC(=O)NC4=O)C5=O)CC3)cc2)CC1 (stereo not shown) [SIAIS631111, (E)-N-(4-(1-(4-(4-(2-(2-((2-(2,6-dioxopiperidin-3-yl)-1,3-dioxoisoindolin-4-yl)thio)ethoxy)acetyl)piperazin-1-yl)benzoyl)piperidin-4-yl)butyl)-3-(pyridin-3-yl)acrylamide]
66.7	O=C(/C=C/c1cccnc1)NCCCCC1CCN(C(=O)c2ccc(N3CCN(C(=O)COCCOCCSc4cccc5c4C(=O)N(C4CCC(=O)NC4=O)C5=O)CC3)cc2)CC1 (stereo not shown) [SIAIS631112, (E)-N-(4-(1-(4-(4-(2-(2-(2-((2-(2,6-dioxopiperidin-3-yl)-1,3-dioxoisoindolin-4-yl)thio)ethoxy)ethoxy)acetyl)piperazin-1-yl)benzoyl)piperidin-4-yl)butyl)-3-(pyridin-3-yl)acrylamide]
68.1	O=C(/C=C/c1cccnc1)NCCCCC1CCN(C(=O)c2ccc(N3CCN(C(=O)COCCOCCOCCSc4cccc5c4C(=O)N(C4CCC(=O)NC4=O)C5=O)CC3)cc2)CC1 (stereo not shown) [SIAIS631113, (E)-N-(4-(1-(4-(4-(2-(2-(2-(2-((2-(2,6-dioxopiperidin-3-yl)-1,3-dioxoisoindolin-4-yl)thio)ethoxy)ethoxy)ethoxy)acetyl)piperazin-1-yl)benzoyl)piperidin-4-yl)butyl)-3-(pyridin-3-yl)acrylamide]
66.5	O=C(/C=C/c1cccnc1)NCCCCC1CCN(C(=O)c2ccc(N3CCN(C(=O)COCCOCCOCCOCCSc4cccc5c4C(=O)N(C4CCC(=O)NC4=O)C5=O)CC3)cc2)CC1 (stereo not shown) [SIAIS631114, (E)-N-(4-(1-(4-(4-(14-((2-(2,6-dioxopiperidin-3-yl)-1,3-dioxoisoindolin-4-yl)thio)-3,6,9,12-tetraoxatetradecanoyl)piperazin-1-yl)benzoyl)piperidin-4-yl)butyl)-3-(pyridin-3-yl)acrylamide]
74.2	O=C(/C=C/c1cccnc1)NCCCCC1CCN(C(=O)c2ccc(N3CCN(C(=O)COCCOCCOCCOCCOCCSc4cccc5c4C(=O)N(C4CCC(=O)NC4=O)C5=O)CC3)cc2)CC1 (stereo not shown) [SIAIS631115, (E)-N-(4-(1-(4-(4-(17-((2-(2,6-dioxopiperidin-3-yl)-1,3-dioxoisoindolin-4-yl)thio)-3,6,9,12,15-pentaoxaheptadecanoyl)piperazin-1-yl)benzoyl)piperidin-4-yl)butyl)-3-(pyridin-3-yl)acrylamide]
66.6	O=C(/C=C/c1cccnc1)NCCCCC1CCN(C(=O)c2ccc(N3CCN(C(=O)COCCOCCOCCOCCOCCSc4cccc5c4CN(C4CCC(=O)NC4=O)C5=O)CC3)cc2)CC1 (stereo not shown) [SIAIS631118, (E)-N-(4-(1-(4-(4-(17-((2-(2,6-dioxopiperidin-3-yl)-1-oxoisoindolin-4-yl)thio)-3,6,9,12,15-pentaoxaheptadecanoyl)piperazin-1-yl)benzoyl)piperidin-4-yl)butyl)-3-(pyridin-3-yl)acrylamide]
623	O=C(/C=C/c1cccnc1)NCCCCC1CCN(C(=O)c2ccc(N3CCN(CCCC#Cc4cccc5c4C(=O)N(C4CCC(=O)NC4=O)C5=O)CC3)cc2)CC1 (stereo not shown) [SIAIS631119, (E)-N-(4-(1-(4-(4-(5-(2-(2,6-dioxopiperidin-3-yl)-1,3-dioxoisoindolin-4-yl)pent-4-yn-1-yl)piperazin-1-yl)benzoyl)piperidin-4-yl)butyl)-3-(pyridin-3-yl)acrylamide]
71	O=C(/C=C/c1cccnc1)NCCCCC1CCN(C(=O)c2ccc(N3CCN(CCCCC#Cc4cccc5c4C(=O)N(C4CCC(=O)NC4=O)C5=O)CC3)cc2)CC1 (stereo not shown) [SIAIS631120, (E)-N-(4-(1-(4-(4-(6-(2-(2,6-dioxopiperidin-3-yl)-1,3-dioxoisoindolin-4-yl)hex-5-yn-1-yl)piperazin-1-yl)benzoyl)piperidin-4-yl)butyl)-3-(pyridin-3-yl)acrylamide]
63.9	O=C(/C=C/c1cccnc1)NCCCCC1CCN(C(=O)c2ccc(N3CCN(CCCCCCC#Cc4cccc5c4C(=O)N(C4CCC(=O)NC4=O)C5=O)CC3)cc2)CC1 (stereo not shown) [SIAIS631121, (E)-N-(4-(1-(4-(4-(8-(2-(2,6-dioxopiperidin-3-yl)-1,3-dioxoisoindolin-4-yl)oct-7-yn-1-yl)piperazin-1-yl)benzoyl)piperidin-4-yl)butyl)-3-(pyridin-3-yl)acrylamide]
725	O=C(/C=C/c1cccnc1)NCCCCC1CCN(C(=O)c2ccc(N3CCC(N4CCNCC4)CC3)nn2)CC1 [SIAIS631135, (E)-N-(4-(1-(6-(4-(piperazin-1-yl)piperidin-1-yl)pyridazine-3-carbonyl)piperidin-4-yl)butyl)-3-(pyridin-3-yl)acrylamide]
